Activity calls are given as the source filed them.
What was measured:
[1] = THP-1 cell cytotoxicity, dose response, cytotoxicity control for non-replicating M. tuberculosis project (AID 489025); assay type: functional
[2] = Luminescence Cell-Based Dose Retest to Confirm Inhibitors of Cancer Stem Cells. [Related pubchem assays (depositor defined):AID2717, AID2721]; assay type: functional; conditions: Homo sapiens
[3] = Vero E6 cell cytotoxicity, dose response, cytotoxicity control for non-replicating M. tuberculosis project, secondary assay (AID 492998); assay type: functional, VeroE6; conditions: Vero C1008
[4] = molecular target: T1, Heat shock factor protein 1 (Mus musculus, UniProt P38532); experiment: enhancement of HSF1-driven luciferase signal – cell-based, NIH3T3, luminescence, dose retest, confirmation (AID 435004); assay type: functional;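 note: stress induced by proteasome inhibitor MG132 added 30 min after compound; luciferase reporter driven by HSF1 response element in NIH3T3 cells; actives raise luminescence as potentiators of the MG132 stress response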
T1 sequence (P38532 whole entry): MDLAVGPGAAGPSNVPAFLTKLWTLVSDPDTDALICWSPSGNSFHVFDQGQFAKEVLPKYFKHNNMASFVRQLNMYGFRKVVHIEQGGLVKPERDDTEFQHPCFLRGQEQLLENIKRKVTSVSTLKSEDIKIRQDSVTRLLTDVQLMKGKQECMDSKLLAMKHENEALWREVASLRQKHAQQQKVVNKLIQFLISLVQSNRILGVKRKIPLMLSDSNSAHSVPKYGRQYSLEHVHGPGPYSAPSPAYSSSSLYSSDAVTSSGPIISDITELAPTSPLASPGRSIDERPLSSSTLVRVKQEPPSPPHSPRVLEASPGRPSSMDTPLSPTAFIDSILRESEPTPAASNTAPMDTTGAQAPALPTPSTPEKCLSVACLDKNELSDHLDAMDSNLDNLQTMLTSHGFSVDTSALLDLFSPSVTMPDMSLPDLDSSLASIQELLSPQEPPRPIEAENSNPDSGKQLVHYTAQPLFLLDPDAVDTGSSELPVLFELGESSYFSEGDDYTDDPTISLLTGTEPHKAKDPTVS

cells = assay type: functional
CHO = CHO cell viability loss, potency – luminescence, cytotoxicity control for TLR9-MyD88 binding inhibitor project, dose response (AID 588339); assay type: functional, cell-based, hamster; conditions: Cricetulus griseus;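 note: CHO cells stably coexpressing TLR9 and MyD88 fusions from primary screen; compound exposure lasted 48 hours before viability readout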
[5] = molecular target: Heat shock protein HSP 90-alpha (Homo sapiens, UniProt P07900); assay type: functional, organism-based
Beta Lactamase = Beta Lactamase (Pseudomonas aeruginosa, UniProt Q932Y6); experiment: BLA reporter interference, concentration series – BLA reporter cells, FRET fluorescence, artefact control for TLR9-MyD88 binding inhibitor project, dose response (AID 588341); assay type: cell-based;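 note: cell based assay in CHO-K1 cells stably expressing beta-lactamase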
[6] = Fluorescence-based cell-based high throughput dose response assay for inhibitors of the interaction of nucleotide-binding oligomerization domain containing 2 (NOD2) and the receptor-interacting serine-threonine kinase 2 (RIPK2).; assay type: functional; conditions: Homo sapiens
[7] = molecular target: Dual specificity tyrosine-phosphorylation-regulated kinase 1A (Rattus norvegicus, UniProt Q63470); assay type: biochemical, Homo sapiens
[8] = molecular target: T2, Endoribonuclease toxin MazF (Escherichia coli K-12, UniProt P0AE70); experiment: activation of MazEF endoribonuclease cleavage – biochemical, fluorescence, single-stranded RNA substrate, uHTS hits, dose response (AID 588481); assay type: functional
T2 sequence (P0AE70 whole entry): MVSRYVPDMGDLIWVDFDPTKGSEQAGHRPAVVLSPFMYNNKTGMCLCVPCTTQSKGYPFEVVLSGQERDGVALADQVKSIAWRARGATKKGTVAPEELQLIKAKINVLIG

[9] = molecular target: T2, Endoribonuclease toxin MazF; experiment: substrate-only fluorescence increase artefacts – biochemical, single-stranded RNase substrate, counter-screen for MazEF activator project, dose response (AID 588502); assay type: functional
[10] = NIH-3T3 fibroblast cytotoxicity, dose response, cytotoxicity control, cell-based, fluorescence, Alamar Blue, secondary assay (AID 2327); assay type: functional;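 note: NIH-3T3 mouse fibroblasts cultured with fluconazole at 8 µg/mL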
[11] = fluconazole-exposed Candida albicans growth modulators – fluorescence, retest, confirmation (AID 2467); assay type: functional, cell-based
[12] = Trypanosoma cruzi growth suppression in host cells – NIH3T3 host cells, beta-gal luminescence, confirmation (AID 2044); assay type: functional, cell-based;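 note: intracellular parasites grown in NIH/3T3 mouse fibroblasts as host cells; luminescent beta-galactosidase reporter signal from transgenic T. cruzi replicating inside host cells; inhibitors lower the luminescence signal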
[13] = molecular target: Serine/threonine-protein phosphatase (Candida dubliniensis (strain CD36 / CBS 7987 / NCPF 3949 / NRRLY-17841) (Yeast), UniProt B9W6M3); experiment: blockers of CaCl2-induced CDRE-lacZ signaling – S. cerevisiae, luminescence, secondary, dose response (AID 2388); assay type: functional, cell-based;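 note: yeast reporter cells carrying a calcineurin-responsive lacZ construct stimulated with calcium chloride; luminescent beta-galactosidase reporter signal in whole cells rather than isolated phosphatase activity; potency for inhibition where a drop in reporter signal means calcineurin blockade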
[14] = NIH3T3 cell viability loss – ATP luminescence, mouse fibroblasts, counter-screen, dose response (AID 2010); assay type: functional, cell-based;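 note: cells exposed to compound for about 90 hours before reading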
INS1 = experiment: INS-1E survival protection against cytokine death – cell-based, luminescence, retest, dose response (AID 449756); assay type: functional; conditions: Rattus norvegicus;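 note: cell death triggered by IL-1 beta plus TNF-alpha plus IFN-gamma mixture; protective hits raise ATP signal compared with cytokine alone wells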
[15] = molecular target: ATP-dependent molecular chaperone HSP82 (Candida albicans (strain WO-1) (Yeast), UniProt C4YTQ8); experiment: steroid-induced GRE reporter decrease in yeast – S. cerevisiae, luminescence, Hsp90 inhibitor project, dose response (AID 2400); assay type: functional, cell-based;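 note: beta-galactosidase luminescence from glucocorticoid response element reporter as proxy for Hsp90 function; inhibitor potency where signal loss means Hsp90 inhibition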
[16] = molecular target: DNA dC->dU-editing enzyme APOBEC-3A (Homo sapiens, UniProt P31941); experiment: A3A deaminase inhibition for selectivity – biochemical, dose response (AID 504722); assay type: functional
[17] = molecular target: Glucose-6-phosphate 1-dehydrogenase (Homo sapiens, UniProt P11413); experiment: inhibition of Homo sapiens G6PD, dose series – biochemical, fluorescence, selectivity assay for P. falciparum G6PD inhibitor project, dose response (AID 504792); assay type: functional
Hexokinase HKDC1 = Hexokinase HKDC1 (Homo sapiens, UniProt Q2TB90); experiment: activation of HKDC1 glucose phosphorylation – biochemical, W721R variant, dose response (AID 504730); assay type: functional
[18] = molecular target: DNA dC->dU-editing enzyme APOBEC-3G (Homo sapiens, UniProt Q9HC16); experiment: Dose Response confirmation of small molecule APOBEC3G DNA Deaminase Inhibitors via a fluorescence-based single-stranded DNA deaminase assay. [Related pubchem assays (depositor defined):AID493012, AID493028]; assay type: functional
Hexokinase-1 = Hexokinase-1 (Homo sapiens, UniProt P19367); experiment: HK1 enzyme activation by HKDC1 hits – biochemical, selectivity assay for HKDC1 activator project, dose response (AID 504762); assay type: functional
Genome polyprotein = Genome polyprotein (dengue virus type 2, UniProt P29990); experiment: flavivirus cap methylation enzyme inhibition – biochemical, confirmation dose response, primary screen (AID 588689); assay type: functional
[19] = HGIII-sPLA2 enzyme inhibition potency – biochemical, QFRET, IC50, dose response (AID 743457);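 note: green fluorescence rise as the enzyme cleaves BODIPY PC-A2 in liposomes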
[20] = molecular target: Latent membrane protein 1 (Human herpesvirus 4 (strain B95-8), UniProt P03230); experiment: LMP1 TES1 pathway selectivity over dsRED control – imaging, HEK293T, dual-color eGFP/dsRED, cherry-picks, selectivity assay for LMP1 NF-kB inhibitor project, dose response (AID 588398); assay type: functional, cell-based
HEK293 = experiment: EBV LMP1 TES2 canonical NF-kB signalling blockers – cell-based, HEK293, luciferase, cherry-pick, dose response (AID 588343); assay type: functional; conditions: Homo sapiens
A-375 [21] = experiment: MITF: Counter assay: A375 proliferation Measured in Cell-Based System Using Plate Reader - 2084-03_Inhibitor_Dose_DryPowder_Activity. [Related pubchem assays (depositor defined):AID488944]; assay type: functional; conditions: Homo sapiens
HeLa = experiment: ATP-based viability loss in HeLa cells – cell-based, CellTiter-Glo luminescence, cherry-pick samples, cytotoxicity control for MITF activator project, dose response (AID 540259); assay type: functional; conditions: Homo sapiens
A-375 [22] = experiment: proliferation inhibition in MITF-low A375 cells – cell-based, cherry-pick samples, set 2, counter-screen for MITF modulator project, dose response (AID 540335); assay type: functional; conditions: Homo sapiens
[23] = molecular target: T3, RNA-binding protein pos-1 (Caenorhabditis elegans, UniProt G5EF15); experiment: disruptors of C. elegans POS-1 RNA interaction – biochemical, fluorescence polarization, dose response (AID 1964);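 note: purified POS-1 fused to maltose binding protein made in E. coli; potency of compounds blocking POS-1 binding to fluorescent RNA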
T3 sequence (G5EF15 whole entry): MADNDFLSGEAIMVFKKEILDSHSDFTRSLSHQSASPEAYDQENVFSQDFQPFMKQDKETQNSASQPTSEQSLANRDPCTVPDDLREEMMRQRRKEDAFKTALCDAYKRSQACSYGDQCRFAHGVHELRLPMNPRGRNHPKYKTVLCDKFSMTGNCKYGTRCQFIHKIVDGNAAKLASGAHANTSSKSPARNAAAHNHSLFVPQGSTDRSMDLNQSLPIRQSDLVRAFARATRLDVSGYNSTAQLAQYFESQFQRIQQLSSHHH

[24] = molecular target: T4, Zinc finger protein mex-5 (Caenorhabditis elegans, UniProt Q9XUB2); experiment: potency of MEX-5 RNA-binding blockers – biochemical, C. elegans, fluorescence polarization, dose response (AID 1960)
T4 sequence (Q9XUB2 whole entry): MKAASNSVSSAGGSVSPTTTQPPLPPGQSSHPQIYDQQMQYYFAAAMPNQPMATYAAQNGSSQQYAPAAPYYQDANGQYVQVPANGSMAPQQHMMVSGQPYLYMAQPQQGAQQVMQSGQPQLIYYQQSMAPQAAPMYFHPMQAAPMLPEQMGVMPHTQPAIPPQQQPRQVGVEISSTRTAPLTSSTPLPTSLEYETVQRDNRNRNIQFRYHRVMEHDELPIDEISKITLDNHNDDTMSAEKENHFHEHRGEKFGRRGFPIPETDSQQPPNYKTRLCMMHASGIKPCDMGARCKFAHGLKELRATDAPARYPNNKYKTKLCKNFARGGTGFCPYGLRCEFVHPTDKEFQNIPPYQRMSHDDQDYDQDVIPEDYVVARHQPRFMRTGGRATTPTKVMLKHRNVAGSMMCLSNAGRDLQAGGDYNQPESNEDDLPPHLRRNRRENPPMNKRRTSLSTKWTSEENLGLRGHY

Caspase-6 = molecular target: T5, Caspase-6 (Homo sapiens, UniProt P55212); experiment: inhibition of CASP6 peptide cleavage – biochemical, VEID-R110 fluorescence, cherry-pick, dose response (AID 720632)
T5 sequence (P55212 whole entry): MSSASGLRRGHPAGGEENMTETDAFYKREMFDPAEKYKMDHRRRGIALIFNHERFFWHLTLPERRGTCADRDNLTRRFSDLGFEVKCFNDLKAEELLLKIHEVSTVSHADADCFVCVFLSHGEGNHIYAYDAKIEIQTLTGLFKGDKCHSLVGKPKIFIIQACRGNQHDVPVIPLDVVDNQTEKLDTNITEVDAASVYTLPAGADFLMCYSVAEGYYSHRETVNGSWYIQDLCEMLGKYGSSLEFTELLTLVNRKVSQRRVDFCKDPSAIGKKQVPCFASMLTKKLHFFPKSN

Sequence of Serine/threonine-protein phosphatase (B9W6M3 whole entry): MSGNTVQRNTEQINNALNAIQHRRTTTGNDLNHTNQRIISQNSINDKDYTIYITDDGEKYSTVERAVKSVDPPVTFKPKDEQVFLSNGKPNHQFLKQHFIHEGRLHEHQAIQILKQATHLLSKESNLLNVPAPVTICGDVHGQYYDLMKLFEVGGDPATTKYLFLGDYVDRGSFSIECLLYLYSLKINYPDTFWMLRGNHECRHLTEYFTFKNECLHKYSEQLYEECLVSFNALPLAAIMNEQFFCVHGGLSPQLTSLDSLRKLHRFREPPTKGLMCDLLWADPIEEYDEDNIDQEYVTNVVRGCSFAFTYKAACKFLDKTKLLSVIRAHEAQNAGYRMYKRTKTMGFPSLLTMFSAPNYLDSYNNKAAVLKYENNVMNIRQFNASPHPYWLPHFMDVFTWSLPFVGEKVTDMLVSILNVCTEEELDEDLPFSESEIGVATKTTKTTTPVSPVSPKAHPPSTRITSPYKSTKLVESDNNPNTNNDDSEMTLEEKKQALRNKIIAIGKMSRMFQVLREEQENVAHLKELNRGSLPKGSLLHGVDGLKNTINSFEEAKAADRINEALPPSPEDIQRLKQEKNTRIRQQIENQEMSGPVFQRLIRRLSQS
Sequence of Beta Lactamase (Q932Y6 whole entry, the tested form may be a part): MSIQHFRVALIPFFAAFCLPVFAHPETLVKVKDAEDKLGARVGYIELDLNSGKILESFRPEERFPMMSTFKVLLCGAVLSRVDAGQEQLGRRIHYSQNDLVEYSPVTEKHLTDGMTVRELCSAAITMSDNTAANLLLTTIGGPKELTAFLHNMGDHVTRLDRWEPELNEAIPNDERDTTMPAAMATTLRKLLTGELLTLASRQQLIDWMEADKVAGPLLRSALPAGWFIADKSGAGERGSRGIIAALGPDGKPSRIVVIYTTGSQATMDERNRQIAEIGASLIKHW
Sequence of ATP-dependent molecular chaperone HSP82 (C4YTQ8 whole entry): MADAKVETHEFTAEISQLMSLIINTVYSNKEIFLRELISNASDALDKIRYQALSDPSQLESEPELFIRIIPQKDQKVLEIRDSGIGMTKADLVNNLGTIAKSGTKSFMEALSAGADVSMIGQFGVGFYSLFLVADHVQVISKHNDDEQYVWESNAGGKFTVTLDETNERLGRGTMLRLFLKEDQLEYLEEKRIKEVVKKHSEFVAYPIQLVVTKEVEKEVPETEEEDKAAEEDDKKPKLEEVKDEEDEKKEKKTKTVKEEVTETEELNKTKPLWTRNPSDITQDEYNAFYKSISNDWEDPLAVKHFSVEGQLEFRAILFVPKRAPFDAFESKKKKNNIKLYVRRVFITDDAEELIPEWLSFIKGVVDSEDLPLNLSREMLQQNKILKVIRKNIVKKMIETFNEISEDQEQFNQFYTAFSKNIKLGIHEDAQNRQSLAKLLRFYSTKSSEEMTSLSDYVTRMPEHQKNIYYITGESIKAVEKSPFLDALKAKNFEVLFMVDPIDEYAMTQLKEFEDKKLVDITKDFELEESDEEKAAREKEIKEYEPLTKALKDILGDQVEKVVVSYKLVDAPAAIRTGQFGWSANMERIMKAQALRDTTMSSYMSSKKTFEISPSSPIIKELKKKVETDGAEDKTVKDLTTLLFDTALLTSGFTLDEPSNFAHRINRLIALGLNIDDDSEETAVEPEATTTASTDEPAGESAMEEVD
Sequence of Latent membrane protein 1 (P03230 whole entry): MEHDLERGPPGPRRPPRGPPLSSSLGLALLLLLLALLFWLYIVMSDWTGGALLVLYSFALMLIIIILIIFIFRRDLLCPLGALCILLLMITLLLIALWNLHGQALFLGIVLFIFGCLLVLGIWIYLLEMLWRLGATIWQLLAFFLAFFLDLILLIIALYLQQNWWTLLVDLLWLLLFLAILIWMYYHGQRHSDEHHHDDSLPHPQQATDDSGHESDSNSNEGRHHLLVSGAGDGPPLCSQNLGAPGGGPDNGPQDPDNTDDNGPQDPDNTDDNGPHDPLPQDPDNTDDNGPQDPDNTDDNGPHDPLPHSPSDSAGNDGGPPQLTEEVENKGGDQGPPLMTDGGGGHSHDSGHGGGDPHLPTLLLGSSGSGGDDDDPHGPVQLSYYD
Sequence of Genome polyprotein (P29990 2492-3391 limits assumed): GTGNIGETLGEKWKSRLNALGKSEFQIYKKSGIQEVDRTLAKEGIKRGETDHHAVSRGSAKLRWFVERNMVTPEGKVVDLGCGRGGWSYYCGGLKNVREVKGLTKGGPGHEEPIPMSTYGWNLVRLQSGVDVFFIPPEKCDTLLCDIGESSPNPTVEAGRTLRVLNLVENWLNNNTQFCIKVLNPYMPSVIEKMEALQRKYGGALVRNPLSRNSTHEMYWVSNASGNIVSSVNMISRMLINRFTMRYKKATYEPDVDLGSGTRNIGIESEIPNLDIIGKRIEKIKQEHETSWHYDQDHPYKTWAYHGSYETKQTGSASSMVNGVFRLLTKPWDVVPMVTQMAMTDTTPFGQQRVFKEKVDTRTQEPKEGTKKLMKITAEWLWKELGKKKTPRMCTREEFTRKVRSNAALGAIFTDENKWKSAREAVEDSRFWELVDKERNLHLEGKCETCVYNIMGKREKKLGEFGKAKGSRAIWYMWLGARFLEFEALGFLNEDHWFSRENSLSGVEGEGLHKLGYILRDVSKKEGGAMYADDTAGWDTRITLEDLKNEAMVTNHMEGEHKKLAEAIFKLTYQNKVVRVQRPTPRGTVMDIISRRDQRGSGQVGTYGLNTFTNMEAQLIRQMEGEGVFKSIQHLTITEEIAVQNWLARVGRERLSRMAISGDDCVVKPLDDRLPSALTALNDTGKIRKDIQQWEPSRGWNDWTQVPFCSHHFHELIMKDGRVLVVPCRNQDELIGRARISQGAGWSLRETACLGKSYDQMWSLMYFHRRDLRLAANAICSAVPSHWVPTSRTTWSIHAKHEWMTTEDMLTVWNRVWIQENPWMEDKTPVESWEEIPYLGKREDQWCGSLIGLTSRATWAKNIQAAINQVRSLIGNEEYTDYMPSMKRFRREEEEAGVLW
Sequence of Hexokinase-1 (P19367 whole entry): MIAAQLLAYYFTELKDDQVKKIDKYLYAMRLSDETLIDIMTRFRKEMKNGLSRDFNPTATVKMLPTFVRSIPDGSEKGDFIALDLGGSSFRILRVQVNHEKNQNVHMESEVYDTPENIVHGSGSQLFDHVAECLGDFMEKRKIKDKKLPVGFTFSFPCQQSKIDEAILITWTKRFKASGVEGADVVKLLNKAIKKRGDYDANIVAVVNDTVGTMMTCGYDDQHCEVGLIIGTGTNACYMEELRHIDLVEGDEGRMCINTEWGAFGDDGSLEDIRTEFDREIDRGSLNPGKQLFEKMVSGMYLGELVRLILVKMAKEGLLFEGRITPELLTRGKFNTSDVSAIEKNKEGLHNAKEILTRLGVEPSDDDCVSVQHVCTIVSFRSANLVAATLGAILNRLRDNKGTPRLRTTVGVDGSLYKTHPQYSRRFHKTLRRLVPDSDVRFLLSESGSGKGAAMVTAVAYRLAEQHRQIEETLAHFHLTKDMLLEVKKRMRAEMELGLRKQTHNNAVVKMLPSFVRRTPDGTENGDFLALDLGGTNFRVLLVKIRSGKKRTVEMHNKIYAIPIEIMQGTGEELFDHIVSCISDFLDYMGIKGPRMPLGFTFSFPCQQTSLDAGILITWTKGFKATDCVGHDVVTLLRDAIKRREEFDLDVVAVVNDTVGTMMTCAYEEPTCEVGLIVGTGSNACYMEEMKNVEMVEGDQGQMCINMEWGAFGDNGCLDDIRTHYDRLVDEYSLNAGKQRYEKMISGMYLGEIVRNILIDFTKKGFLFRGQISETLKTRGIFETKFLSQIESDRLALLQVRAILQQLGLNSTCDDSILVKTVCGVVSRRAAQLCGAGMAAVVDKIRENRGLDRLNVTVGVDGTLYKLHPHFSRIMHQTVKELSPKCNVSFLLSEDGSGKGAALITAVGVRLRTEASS
Sequence of DNA dC->dU-editing enzyme APOBEC-3A (P31941 whole entry): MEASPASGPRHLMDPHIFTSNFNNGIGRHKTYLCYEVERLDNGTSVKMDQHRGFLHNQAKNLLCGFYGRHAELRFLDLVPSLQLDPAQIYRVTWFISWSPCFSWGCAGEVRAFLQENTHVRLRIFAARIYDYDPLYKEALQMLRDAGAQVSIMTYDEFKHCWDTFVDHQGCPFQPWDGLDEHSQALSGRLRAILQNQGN
Sequence of DNA dC->dU-editing enzyme APOBEC-3G (Q9HC16 whole entry): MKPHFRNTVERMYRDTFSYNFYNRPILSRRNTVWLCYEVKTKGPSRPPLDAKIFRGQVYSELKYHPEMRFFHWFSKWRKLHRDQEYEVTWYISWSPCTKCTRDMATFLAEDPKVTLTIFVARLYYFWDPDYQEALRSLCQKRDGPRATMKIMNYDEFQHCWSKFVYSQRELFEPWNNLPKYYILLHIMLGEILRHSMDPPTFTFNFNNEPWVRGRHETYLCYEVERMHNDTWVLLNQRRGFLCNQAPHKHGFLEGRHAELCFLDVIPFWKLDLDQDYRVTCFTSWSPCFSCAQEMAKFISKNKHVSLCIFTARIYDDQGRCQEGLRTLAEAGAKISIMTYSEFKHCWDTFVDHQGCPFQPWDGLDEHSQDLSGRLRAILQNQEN
Sequence of Glucose-6-phosphate 1-dehydrogenase (P11413 whole entry): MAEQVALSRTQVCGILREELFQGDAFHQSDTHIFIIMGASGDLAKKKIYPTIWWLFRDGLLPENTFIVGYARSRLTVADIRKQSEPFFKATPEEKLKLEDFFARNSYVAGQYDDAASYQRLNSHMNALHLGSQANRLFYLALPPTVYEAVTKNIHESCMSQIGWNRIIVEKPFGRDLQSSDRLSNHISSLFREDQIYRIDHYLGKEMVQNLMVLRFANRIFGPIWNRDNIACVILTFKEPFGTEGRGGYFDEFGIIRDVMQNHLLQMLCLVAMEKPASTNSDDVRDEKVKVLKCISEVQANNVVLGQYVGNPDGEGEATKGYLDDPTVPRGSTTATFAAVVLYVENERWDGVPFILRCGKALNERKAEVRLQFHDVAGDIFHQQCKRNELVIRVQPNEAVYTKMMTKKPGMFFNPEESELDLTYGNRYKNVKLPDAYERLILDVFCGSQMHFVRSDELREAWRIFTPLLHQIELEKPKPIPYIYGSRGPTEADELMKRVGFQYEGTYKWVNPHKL

In the case of `C=CCN1C(=O)/C(=C2/C(=O)Nc3ccccc32)c2ccccc21`, the CC50 [1] is reported as 19.7 µM (active), the AC50 [2] is reported as 4.32 µM (active) and the CC50 [3] is reported as 3.31 µM (active). For the same compound, the EC50 [4] was 8.91 µM (active), the IC50 (cells) was 0.4 µM (active) and the IC50 (CHO) was 3.64 µM (active). For the same compound, the AC50 [5] was 1.17 µM (active), the IC50 (Beta Lactamase) was > 49.8 µM (inactive) and the IC50 [6] was 2.1 µM (active).

For `Cc1nc2c(ccc3nc(NC(=O)Cc4ccccc4)sc32)s1`, the AC50 [7] was 0.73 µM (active).

For `CCN(CC)c1ccc(C=NNc2ccc([N+](=O)[O-])cn2)cc1`, the IC50 (CHO) was 24.3 µM (inactive), the EC50 [8] was > 99 µM (inactive) and the IC50 (Beta Lactamase) was 4.5 µM (active). The EC50 [9] was 70.2 µM (inactive).

For `CCCCCCOC(=O)C[N+](C)(C)CCOC1CC2CCC1(C)C2(C)C` (configuration not stated), the EC50 [10] was 23.6 µM (active), the EC50 [11] was 0.456 µM (active) and the EC50 [12] was 0.178 µM (active). The EC50 [13] was > 180 µM (inactive), the EC50 [14] was > 30 µM (not active) and the AC50 (INS1) was 4.16 µM (active). The EC50 [15] was 30.6 µM (active).

For `COc1cc(N=c2ssnc2Cl)c(OC)cc1Cl`, the IC50 [16] was > 100 µM (inactive), the IC50 [17] was 68.8 µM (inactive) and the EC50 (Hexokinase HKDC1) was 27.2 µM (inactive). For the same compound, the IC50 [18] was 8.83 µM (active), the EC50 (Hexokinase-1) was 41.9 µM (inactive) and the IC50 (Genome polyprotein) was > 100 µM (active). The IC50 [19] was 92.1 µM (inactive).

With `COCCCNCC1C(Oc2ccc(Cl)cc2)C(=O)N1c1ccccc1C` (configuration not stated) the AC50 [20] was 28.2 µM (active).

In the case of `Nc1nc2ccccc2n1C(=O)c1ccccc1`, the AC50 (HEK293) is reported as 5.38 µM (active) and the AC50 [20] is reported as 108 µM (active).

For `O=C(Nc1cccc(-c2cn3ccccc3n2)c1)c1cccc(Cl)c1`, the EC50 [10] was 11 µM (active), the EC50 [11] was 1.05 µM (active) and the EC50 [13] was > 180 µM (inactive). For the same compound, the EC50 [15] was > 160 µM (inactive).

With `COC(=O)c1c(C)[nH]c(/C=N/Nc2ccccc2)c1C` the AC50 (A-375 [21]) was > 35 µM (active), the AC50 (HeLa) was 103 µM (active) and the AC50 (A-375 [22]) was > 35 µM (active).

With `Cc1cc(/C=N/Nc2ccc([N+](=O)[O-])cn2)c(C)n1-c1cccc(C(=O)O)c1` the EC50 [23] was > 300 µM (not active), the EC50 [24] was 37.7 µM (active) and the AC50 [7] was 8.79 µM (active). For the same compound, the AC50 (Caspase-6) was 14.4 µM (active).

Reference: ChEMBL document CHEMBL1201862, “PubChem BioAssay data set” (2004)
